Entries after “also recorded” stand apart in the source; their conditions may differ.
Key:
Format in all cases: cell-based
[1] = biological target: T1, BRD4 (Homo sapiens, UniProt O60885); assay: CURE-PRO-mediated BRD4 degradation, Western blot, HeLa cells; set-up: endogenous in cells; host or cells: HeLa; details: 24 h, Western blot; for BRD4 degradation, co-treatment with CRBN ligand 8046: 1:1 with 8046, 10 μM each; for BRD4 degradation, co-treatment with CRBN ligand 8047: 1:1 with 8047, 10 μM each; for BRD4 degradation, co-treatment with CRBN ligand 8066: 1:1 with 8066, 10 μM each (BRD-E10: 10 and 100 μM)
Method in brief: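 HeLa cells treated 24 h with compounds in DMSO (1-10 μM, 10 μM or 100 μM each; paired monomers combined 1:1), optional 15-min pretreatment with pomalidomide, VHL298, Nutlin3a (10 μM) or MG-132/carfilzomib (1 μM). RIPA lysates, 10-20 μg protein immunoblotted for BRD4 with β-actin, ECL detection.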

[2] = biological target: T1, BRD4; assay: Summary of BRD4 degradation by CURE-PRO pairs, estimated from Western Blot or WES (Proteinsimple); set-up: endogenous in cells; details: for Degradation of BRD4 in combination with CRBN ligand [drawing 370]: aromatic 1,2-diol- or hindered cis-1,2-diol-containing CRBN ligand, first drawing (8046); for Degradation of BRD4 in combination with CRBN ligand [drawing 372]: third drawing (8066)
Text: A black check mark indicates efficacy of 30% to 70% or higher protein degradation.

[3] = tested on: MV-4-11 cells; assay: CellTiter-Glo cell viability, MV-4-11 cells; details: for Loss of cellular viability / toxicity, cotreated with cereblon ligands 8046, 8047 and 8066 vs monomers alone: MV-4-11, 72 hours, 1:1, 10 nM-100 μM each
Procedure: CellTiter-Glo® 2.0 Cell Viability Assay (Promega) was carried out following the manufacturer's recommendations. Cells were seeded at a density of 1000 cells/well in a white 96 well plates (Corning, #3917) in a total volume of 100 μl with respective monomers, combinations of BRD ligands together with E3 ligase ligands or vehicle control treatment. After a 72 h incubation, 100 ul of the CellTiter-Glo® substrate was added per well and luminescence was read on a Spectramax M5 (Molecular Devices). Dose-response curves were generated using Graphpad Prism software.
MV-4-11 cells (5×104) were treated for 24 hours with the sample compounds solubilized in DMSO. The compounds were added at 1 nM-100 μM each. Cellular viability was determined using the CellTiter-Glo® Luminescent Cell Viability Assay (Promega) described above. FIGS. 19-22 depict the CURE-PRO-mediated loss of cellular viability for BRD monomers (JQ1 derivatives comprising of catechol linkers), and CRBN ligand, 8049 (pomalidomide derivatives comprising boronic acid linkers) combined in a 1:1 ratio.
MV-4-11 cells (1×104) were treated for 72 hours with the compounds solubilized in DMSO. Compounds were added at 10 nM-100 μM each. Cellular viability was determined using the CellTiter-Glo® Luminescent Cell Viability Assay (Promega) described above. FIGS. 47-54 depict the CURE-PRO-mediated loss of cellular viability for BRD monomers (JQ1 derivatives comprising of boronic acid linkers), and CRBN ligands, 8046, 8047 and 8066 (pomalidomide derivatives comprising diol linkers) combined in a 1:1 ratio.

| Compound | BRD4 degradation, co-treatment with CRBN ligand 8046 [1] | BRD4 degradation, co-treatment with CRBN ligand 8047 [1] | Degradation of BRD4 in combination with CRBN ligand [drawing 370] ([2]; Table 1) | Loss of cellular viability / toxicity, cotreated with cereblon ligands 8046, 8047 and 8066 vs monomers alone [3] | BRD4 degradation, co-treatment with CRBN ligand 8066 [1] | Degradation of BRD4 in combination with CRBN ligand [drawing 372] ([2]; Table 1, CRBN ligand) | BRD4 degradation, co-treatment with CRBN ligand 8048 ([1]; 1:1 with 8048, 1-10 μM each) | BRD4 degradation, BRD ligand alone ([1]; BRD monomer alone) | Degradation of BRD4 in combination with CRBN ligand [drawing 407] ([2]; Table 4, aryl-boronic acid-containing CRBN ligand, first drawing (by text: 8048)) | Degradation of BRD4 in combination with CRBN ligand [drawing 408] ([2]; Table 4, aryl-boronic acid-containing CRBN ligand, second drawing (by text: 8049)) | Degradation of BRD4 in combination with MDM2 ligand [drawing 423] ([2]; Table 5, aryl-boronic acid-containing MDM2 ligand, first drawing (8310)) | Loss of cellular viability / toxicity, co-dosed with CRBN ligand 8049 ([3]; MV-4-11, 24 hours, 1:1 with 8049, 1 nM-100 μM each) | Degradation of BRD4 in combination with CRBN ligand [drawing 371] ([2]; Table 1, CRBN ligand, second drawing (8047)) |
| --- | --- | --- | --- | --- | --- | --- | --- | --- | --- | --- | --- | --- | --- |
| CCNC(=O)C[C@@H]1N=C(c2ccc(Cl)cc2)c2cc(Sc3cccc(B(O)O)c3)ccc2-n2c(C)nnc21 [BRD-E76] | causes degradation of BRD4 | causes degradation of BRD4 | ✓ (A black check mark indicates efficacy of 30% to 70% or higher protein degradation) | reduced viability; also recorded: increased toxicity | – | – | – | – | – | – | – | – | – |
| COc1ccc2c(c1)C(c1ccc(Cl)cc1)=N[C@@H](CC(=O)NCCOCCOCCNC(=O)c1cccc(B(O)O)c1)c1nnc(C)n1-2 [BRD-E46] | causes degradation of BRD4; also recorded: Degradation is noted | – | ✓ (A black check mark indicates efficacy of 30% to 70% or higher protein degradation) | reduced viability; also recorded: increased toxicity | causes degradation of BRD4; also recorded: Degradation is noted | ✓ (A black check mark indicates efficacy of 30% to 70% or higher protein degradation) | – | – | – | – | – | – | – |
| COc1ccc2c(c1)C(c1ccc(Cl)cc1)=N[C@@H](CC(=O)NCCc1ccc(O)c(O)c1)c1nnc(C)n1-2 [BRD-N10, (S)-2-(6-(4-chlorophenyl)-8-methoxy-1-methyl-4H-benzo[f][1,2,4]triazolo[4,3-a][1,4]diazepin-4-yl)-N-(3,4-dihydroxyphenethyl)acetamide] | – | – | – | – | – | – | causes degradation of BRD4; also recorded: capable of degrading BRD4 | no degradation of BRD4 | ✓ (A black check mark indicates efficacy of 30% to 70% or higher protein degradation) | ✓ (A black check mark indicates efficacy of 30% to 70% or higher protein degradation) | ✓ (A black check mark indicates efficacy of 30% to 70% or higher protein degradation) | concentration-dependent loss in cellular viability; also recorded: increased toxicity | – |
| COc1ccc2c(c1)C(c1ccc(Cl)cc1)=N[C@@H](CC(=O)NCCNC(=O)/C=C/c1ccc(B(O)O)cc1)c1nnc(C)n1-2 [BRD-E29, (4-((E)-3-((2-(2-((4S)-6-(4-chlorophenyl)-8-methoxy-1-methyl-4H-benzo[f][1,2,4]triazolo[4,3-a][1,4]diazepin-4-yl)acetamido)ethyl)amino)-3-oxoprop-1-en-1-yl)phenyl)boronic acid] | causes degradation of BRD4; also recorded: Degradation is noted | causes degradation of BRD4; also recorded: Degradation is noted | ✓ (A black check mark indicates efficacy of 30% to 70% or higher protein degradation) | reduced viability; also recorded: increased toxicity | causes degradation of BRD4; also recorded: Degradation is noted | ✓ (A black check mark indicates efficacy of 30% to 70% or higher protein degradation) | – | – | – | – | – | – | ✓ (A black check mark indicates efficacy of 30% to 70% or higher protein degradation) |

Source: patent publication US20230277553A1, “THERAPEUTIC COMPOSITION OF CURE-PRO COMPOUNDS FOR TARGETED DEGRADATION OF BET DOMAIN PROTEINS, AND METHODS OF MAKING AND USAGE” (CORNELL UNIVERSITY, priority 2020, published 2023)
